In patent US7109234B2, “Benzoxathiepine derivatives and their use as medicines” (Pierre Fabre Medicament, priority 2001, dated 2006):
Read-outs that look alike come from different tables or passages of the source.

Assays:
rat isolated left atrium = assay: Inhibition of the veratrine-induced contraction of the rat isolated left atrium; assay type: cell-based; details: for IC50: read-out: Contraction with veratrine Inhibition IC50
New Zealand rabbits = assay: Occlusion-reperfusion model in the anesthetized animal (ECG ST segment, arterial pressure, heart rate); assay type: in vivo, rabbit; details: for Arterial pressure % variation / Heart rate % variation / ST segment % inhibition at 2.5 mg/kg p.o.: 2.5 mg/kg p.o., anesthetized rabbit; for ST segment % inhibition at 2.5 mg/kg p.o.: coronary occlusion-reperfusion
Protocol: Thus, the compounds of the invention are capable of normalizing the electrical disturbances of the ECG brought about by a regional ischemia followed by a reperfusion, this being achieved without a significant effect on the hemodynamic parameters. The test in question is carried out according to the technique described in J. Cardiovasc. Pharmacol., 1995, 25, 126 according to the following protocol.
Male New Zealand rabbits (Elévage des Dombes, Romans, Chatillon-sur-Chalaronne, France) weighing 2.2 to 2.7 kg are used. The animals are placed in quarantine for 4 to 8 days with free access to standardized laboratory food before they are used in the experiments. The animals are housed individually. Water filtered through a 0.22 μm filter is freely available from an automatic dispenser. The quarantine area and the experimental laboratory are air-conditioned (temperature: 20±3° C.; relative humidity: 55±5%) and are illuminated from 7 a.m. to 7 p.m. All the animals are treated according to the code of ethics for laboratory animals (Guide for the Care and Use of Laboratory Animals, […], Public Health Service, National Institutes of Health publication No. 85-23, Revised 1985) and the protocol (No. 28) is carried out in accordance with the recommendations of the local research animals ethics committee. The animals are anesthetized using sodium pentobarbital (60 mg/kg) administered intravenously (i.v.) via a catheter positioned in the vein of the ear. The animals are instrumented with respiratory assistance (683 rodent/small animal ventilator, Havard Apparatus, Les Ulis, France). The gas mixture inhaled is enriched in oxygen. The respiratory rhythm, the flow volume and the percentage of oxygen in the gas mixture are adjusted so as to keep the gases in the blood within physiological limits. A polyethylene catheter, introduced into the carotid artery, is used both for the measurements of arterial pressure and to take the samples intended for the analysis of the blood gases (ABL 510, Radiometer, Copenhagen, Denmark). Anesthesia is maintained by injections of sodium pentobarbital as required. The body temperature of the animals is kept at 38–39° C. throughout the duration of the experiment using a heating blanket (Homothermic Blanket, Havard Apparatus). The various catheters are rinsed using a sterile saline solution (0.9%) comprising heparin (150 U.I./ml). The ECG (DII derivation) is recorded in order to measure the variations in the heart rate (RR interval) and in the amplitude of the ST segment. The arterial pressure is digitized and analyzed simultaneously (Dataflow®, Crystal Biotech, Northboro, Mass.). The thorax of the animal is opened at the fourth intercostal space and the pericardium is incised so as to reveal the left coronary artery. A ligature (Vicryl®, 5/0, Ethicon, Paris, France) is passed under this artery. After examining the ECG in order to detect any signs of myocardial lesions (persistent rise of the ST segment above 0.25 mV), a period of stabilization lasting 30 min is systematically observed. Any animal showing a possible myocardial lesion is excluded from the study. The test compound or the vehicle is administered per os (p.o.), as a 1% solution in methyl-cellulose, in a proportion of 1 ml/kg via a gastric tube made of flexible rubber. Anesthesia is produced 60 min after administration of the test compound or of the vehicle. The main coronary artery is then ligated for 10 min, i.e. 60 min after anesthesia, the tension in the ligature is subsequently relaxed completely for 10 min and then reestablished at the end of the procedure. The heart is excised and perfused using a formaldehyde solution (10%). The surface not fixed by the formaldehyde is regarded as the surface at risk.
The parameters measured in the experiment are: • the systolic and diastolic arterial pressure; • the heart rate (measured from the RR intervals); • the amplitude of the ST segment. […]

[1] = rat isolated left atrium, veratrine 100 μg/ml, product added 15 min before

IC50 (rat isolated left atrium; [1]) [nM] | Compound | Arterial pressure % variation (New Zealand rabbits) [%] | Heart rate % variation (New Zealand rabbits) [%] | ST segment % inhibition at 2.5 mg/kg p.o. (New Zealand rabbits) [%] | in vitro activity (contraction with veratrine) (rat isolated left atrium; stated in words) | in vivo activity (inhibition of the raising of the ST segment) (New Zealand rabbits; stated in words, 2.5 mg/kg by the oral route) | IC50 (rat isolated left atrium; Rattus norvegicus) [nM]
640 | COc1ccccc1SC[C@H](CN[C@@H]1COc2ccccc2SC1)OC [Compound 1-1, 3-(R)-[3-(2-Methoxyphenylthio)-2-(S)-methoxypropyl]amino-3,4-dihydro-2H-1,5-benzoxathiepine] | 8 | 2 | 85 | – | – | –
140 | COc1ccccc1SC[C@@H](C)CN[C@@H]1COc2ccccc2SC1 [Compound 1-7, 3-(R)-[3-(2-Methoxyphenylthio)-2-(S)-methylpropyl]amino-3,4-dihydro-2H-1,5-benzoxathiepine] | 5 | 0 | 69 | – | – | –
> 10000 | COc1ccc([C@@H]2Sc3ccccc3N(CCN(C)C)C(=O)[C@@H]2OC(C)=O)cc1 [Diltiazem, diltiazem] | −27 | −5 | 30 | inactive | active | –
– | CN(c1nc2ccccc2s1)C1CCN(CCCCOc2ccc(F)cc2)CC1 [R 56865] | – | – | 0 | – | – | 250
